Laboratory results taken from patent publication US20260200928A1, “THERAPEUTIC COMPOUNDS” (Sanofi, priority 2022, published 2026).
pIC50: −log10 of the molar value. Structures can show the parent of a compound that is named as a salt.

Target: T1, human IL-17A (Homo sapiens, UniProt Q16552)
T1 construct: purchased R&D Systems 7955-IL/CF
T1 sequence (Q16552 24-155): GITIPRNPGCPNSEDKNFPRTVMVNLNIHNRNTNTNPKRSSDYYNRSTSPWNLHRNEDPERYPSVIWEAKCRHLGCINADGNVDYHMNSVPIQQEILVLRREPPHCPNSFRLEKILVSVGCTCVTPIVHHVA
Assay: IL-17A AlphaLISA competition assay (block of IL-17A binding to its receptor IL-17RA)
Conditions: mean IC50 (n≥2), block of IL-17A binding to IL-17RA
How it was run: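 Human recombinant IL-17A (7.5 nM stock) pre-incubated 30 min at RT with compound, then IL-17RA/Fc (5 nM stock) added for 90 min; AlphaLISA read with anti-Fc acceptor beads, biotinylated anti-IL-17A antibody (5 nM) and streptavidin donor beads (3 h, dark). IC50 from 4-parameter logistic fit, normalised to DMSO and 4 μM reference inhibitor; n≥2.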

Q: How did the pIC50 turn out when `Cn1nccc1C(=O)NC(C(=O)Nc1cc(C(NC(=O)CCC(F)(F)F)C2CC2)ccn1)C1CCC(F)(F)CC1` (centres unmarked) [Example 47, N-(2-((4-(cyclopropyl(4,4,4-trifluorobutanamido)methyl)pyridin-2-yl)amino)-1-(4,4-difluorocyclohexyl)-2-oxoethyl)-1-methyl-1H-pyrazole-5-carboxamide] was run?
A: The pIC50 was 6.20.

Q: With `NCC1(c2nocc2C(=O)N[C@H](C(=O)Nc2cc(CN3C[C@@H](C(F)(F)F)NC3=O)ccn2)C2CCC(F)(F)CC2)CC1` [Example 22, 3-(1-(Aminomethyl)cyclopropyl)-N—((S)-1-(4,4-difluorocyclohexyl)-2-oxo-2-((4-(((S)-2-oxo-4-(trifluoromethyl)imidazolidin-1-yl)methyl)pyridin-2-yl)amino)ethyl)isoxazole-4-carboxamide HCl salt] as the compound, how does the pIC50 read?
A: Its pIC50 is 5.03.
